# Non-standard residues stand in square brackets, D forms with d. Residues, ends and D or L forms follow the SMILES beside them. Tic = O=C(O)[C@@H]1Cc2ccccc2CN1; Aoc = NCCCCCCCC(=O)O; Ava = NCCCCC(=O)O
# Key:
# C. glabrata = details: 24 h
# C. parapsilosis = details: 24 h
# C. gattii = details: 72 h
# C. neoformans = details: 72 h
# C. tropicalis = details: 24 h
# C. albicans = details: 24 h
# Scedosporium spp. = details: 72 h
# C. krusei = details: 24 h
# C. auris = details: 24 h
# C. dubliniensis = details: 24 h
# Fusarium spp. = details: 48 h
# in vitro = details: human, EC50 cytotoxicity in HepG2, intracellular ATP assay
Structure (SMILES),MIC C. glabrata (C. glabrata) [µg/mL],MIC C. parapsilosis (C. parapsilosis) [µg/mL],MIC C. gattii (C. gattii) [µg/mL],MIC C. neoformans (C. neoformans) [µg/mL],MIC C. tropicalis (C. tropicalis) [µg/mL],MIC C. albicans (C. albicans) [µg/mL],MIC Range Scedosporium spp. (Scedosporium spp.) [µg/mL],MIC C. krusei (C. krusei) [µg/mL],MIC Range Lomentospora prolificans (Lomentospora prolificans) [µg/mL],MIC C. auris (C. auris) [µg/mL],MIC C. dubliniensis (C. dubliniensis) [µg/mL],MIC Range Fusarium spp. (Fusarium spp.) [µg/mL],EC50 (in vitro) [µg/mL]
"CC(=O)N[C@H](CCCNC(=N)N)C(=O)N[C@@H](CCCNC(=N)N)C(=O)N[C@H](CCCNC(=N)N)C(=O)NCCCCCCCC(=O)N[C@H](CCCNC(=N)N)C(=O)N[C@@H](CCCNC(=N)N)C(=O)N[C@H](CCCNC(=N)N)C(=O)NCCCCCCCC(=O)N[C@H](CCCNC(=N)N)C(=O)N[C@@H](CCCNC(=N)N)C(=O)N[C@H](CCCNC(=N)N)C(=O)N[C@@H](CCCNC(=N)N)C(=O)NCCCCCCCC(=O)N[C@H](CCCNC(=N)N)C(=O)N[C@@H](CCCNC(=N)N)C(=O)N[C@H](CCCNC(=N)N)C(=O)N[C@@H](CCCNC(=N)N)C(N)=O [SEQ ID NO: 31, CH3CONH-rRr-(Aoa)-rRr-(Aoa)-rRrR-(Aoa)-rRrR-NH2] (Ac-[dR]R[dR][Aoc][dR]R[dR][Aoc][dR]R[dR]R[Aoc][dR]R[dR]R-NH2)",1,0.25,0.5,0.5,0.5,1,0.5 to 2,0.5,2,0.5,1,0.25 to 4,
"CC(=O)N[C@H](CCCNC(=N)N)C(=O)N[C@@H](CCCNC(=N)N)C(=O)N[C@H](CCCNC(=N)N)C(=O)N1CCC[C@H]1C(=O)N[C@H](CCCNC(=N)N)C(=O)N[C@@H](CCCNC(=N)N)C(=O)N[C@H](CCCNC(=N)N)C(=O)N1CCC[C@H]1C(=O)N[C@H](CCCNC(=N)N)C(=O)N[C@@H](CCCNC(=N)N)C(=O)N[C@H](CCCNC(=N)N)C(=O)N[C@@H](CCCNC(=N)N)C(=O)N1CCC[C@H]1C(=O)N[C@H](CCCNC(=N)N)C(=O)N[C@@H](CCCNC(=N)N)C(=O)N[C@H](CCCNC(=N)N)C(=O)N[C@@H](CCCNC(=N)N)C(N)=O [SEQ ID NO: 55, CH3CONH-rRr-P-rRr-P-rRrR-P-rRrR-NH2] (Ac-[dR]R[dR]P[dR]R[dR]P[dR]R[dR]RP[dR]R[dR]R-NH2)",0.5,0.25,1,0.5,0.5,1,0.5 to 1,2,1,1,0.5,0.25 to 1,
"N=C(N)NCCC[C@@H](N)C(=O)N[C@@H](CCCNC(=N)N)C(=O)N[C@H](CCCNC(=N)N)C(=O)N1Cc2ccccc2C[C@H]1C(=O)N[C@H](CCCNC(=N)N)C(=O)N[C@@H](CCCNC(=N)N)C(=O)N[C@H](CCCNC(=N)N)C(=O)N1Cc2ccccc2C[C@H]1C(=O)N[C@H](CCCNC(=N)N)C(=O)N[C@@H](CCCNC(=N)N)C(=O)N[C@H](CCCNC(=N)N)C(=O)N[C@@H](CCCNC(=N)N)C(=O)N1Cc2ccccc2C[C@H]1C(=O)N[C@H](CCCNC(=N)N)C(=O)N[C@@H](CCCNC(=N)N)C(=O)N[C@H](CCCNC(=N)N)C(=O)N[C@@H](CCCNC(=N)N)C(N)=O [SEQ ID NO: 76, rRr-(Tic)-rRr-(Tic)-rRrR-(Tic)-rRrR-NH2] (H-[dR]R[dR][Tic][dR]R[dR][Tic][dR]R[dR]R[Tic][dR]R[dR]R-NH2)",0.5,0.5,,,0.5,0.5,,1,,0.5,0.5,,139
"N=C(N)NCCC[C@@H](N)C(=O)N[C@@H](CCCNC(=N)N)C(=O)N[C@H](CCCNC(=N)N)C(=O)N1CCC[C@H]1C(=O)N[C@H](CCCNC(=N)N)C(=O)N[C@@H](CCCNC(=N)N)C(=O)N1CCC[C@H]1C(=O)N[C@H](CCCNC(=N)N)C(=O)N[C@@H](CCCNC(=N)N)C(=O)N[C@H](CCCNC(=N)N)C(=O)N1CCC[C@H]1C(=O)N[C@H](CCCNC(=N)N)C(=O)N[C@@H](CCCNC(=N)N)C(N)=O [SEQ ID NO: 68, rRr-P-rR-P-rRr-P-rR-NH2] (H-[dR]R[dR]P[dR]RP[dR]R[dR]P[dR]R-NH2)",2,0.5,2,8,1,0.25,8,2,>32,>32,0.5,,
"N=C(N)NCCC[C@@H](N)C(=O)N[C@@H](CCCNC(=N)N)C(=O)NCCCCC(=O)N[C@H](CCCNC(=N)N)C(=O)N[C@@H](CCCNC(=N)N)C(=O)N[C@H](CCCNC(=N)N)C(=O)NCCCCC(=O)N[C@H](CCCNC(=N)N)C(=O)N[C@@H](CCCNC(=N)N)C(=O)NCCCCC(=O)N[C@H](CCCNC(=N)N)C(=O)N[C@@H](CCCNC(=N)N)C(=O)N[C@H](CCCNC(=N)N)C(N)=O [SEQ ID NO: 25, rR-(Ava)-rRr-(Ava)-rR-(Ava)-rRr-NH2] (H-[dR]R[Ava][dR]R[dR][Ava][dR]R[Ava][dR]R[dR]-NH2)",8,0.5,4,32,2,4,16 to 32,16,>32,>32,2,,
"N=C(N)NCCC[C@@H](N)C(=O)N[C@@H](CCCNC(=N)N)C(=O)N[C@H](CCCNC(=N)N)C(=O)NCCCCC(=O)N[C@H](CCCNC(=N)N)C(=O)N[C@@H](CCCNC(=N)N)C(=O)N[C@H](CCCNC(=N)N)C(=O)NCCCCC(=O)N[C@H](CCCNC(=N)N)C(=O)N[C@@H](CCCNC(=N)N)C(=O)NCCCCC(=O)N[C@H](CCCNC(=N)N)C(=O)N[C@@H](CCCNC(=N)N)C(N)=O [SEQ ID NO: 27, rRr-(Ava)-rRr-(Ava)-rR-(Ava)-rR-NH2] (H-[dR]R[dR][Ava][dR]R[dR][Ava][dR]R[Ava][dR]R-NH2)",8,0.25,2,8,1,2,8 to 16,8,32,>32,1,,
"N=C(N)NCCC[C@@H](N)C(=O)N[C@@H](CCCNC(=N)N)C(=O)NCCCCC(=O)N[C@H](CCCNC(=N)N)C(=O)N[C@@H](CCCNC(=N)N)C(=O)N[C@H](CCCNC(=N)N)C(=O)NCCCCC(=O)N[C@H](CCCNC(=N)N)C(=O)N[C@@H](CCCNC(=N)N)C(=O)N[C@H](CCCNC(=N)N)C(=O)NCCCCC(=O)N[C@H](CCCNC(=N)N)C(=O)N[C@@H](CCCNC(=N)N)C(N)=O [SEQ ID NO: 23, rR-(Ava)-rRr-(Ava)-rRr-(Ava)-rR-NH2] (H-[dR]R[Ava][dR]R[dR][Ava][dR]R[dR][Ava][dR]R-NH2)",4,0.25,2,8,1,2,16 to 32,4,>32,>32,1,,
"N=C(N)NCCC[C@@H](N)C(=O)N[C@@H](CCCNC(=N)N)C(=O)N[C@H](CCCNC(=N)N)C(=O)N[C@@H](CCCNC(=N)N)C(=O)N1CCC[C@H]1C(=O)N[C@H](CCCNC(=N)N)C(=O)N[C@@H](CCCNC(=N)N)C(=O)N[C@H](CCCNC(=N)N)C(=O)N[C@@H](CCCNC(=N)N)C(=O)N1CCC[C@H]1C(=O)N[C@H](CCCNC(=N)N)C(=O)N[C@@H](CCCNC(=N)N)C(=O)N[C@H](CCCNC(=N)N)C(=O)N1CCC[C@H]1C(=O)N[C@H](CCCNC(=N)N)C(=O)N[C@@H](CCCNC(=N)N)C(=O)N[C@H](CCCNC(=N)N)C(N)=O [SEQ ID NO: 60, rRrR-P-rRrR-P-rRr-P-rRr-NH2] (H-[dR]R[dR]RP[dR]R[dR]RP[dR]R[dR]P[dR]R[dR]-NH2)",0.25,0.25,,,0.25,0.25,,0.5,,0.5,0.25,,> 300

# Source: patent US20240360177A1, “PEPTIDES WITH ANTIMICROBIAL ACTIVITIES” (priority 2021, published 2024)
